In US20260193238A1, “PHARMACEUTICAL COMPOUNDS AS PARP7 AND/OR PARP1 INHIBITORS” (Duke Street Bio Limited, priority 2022, published 2026):

Target: PARP1 (Homo sapiens, UniProt P09874)
Assay: PARP1 biochemical DELFIA assay (auto-PARylation)

PARP1, sequence (P09874 whole entry): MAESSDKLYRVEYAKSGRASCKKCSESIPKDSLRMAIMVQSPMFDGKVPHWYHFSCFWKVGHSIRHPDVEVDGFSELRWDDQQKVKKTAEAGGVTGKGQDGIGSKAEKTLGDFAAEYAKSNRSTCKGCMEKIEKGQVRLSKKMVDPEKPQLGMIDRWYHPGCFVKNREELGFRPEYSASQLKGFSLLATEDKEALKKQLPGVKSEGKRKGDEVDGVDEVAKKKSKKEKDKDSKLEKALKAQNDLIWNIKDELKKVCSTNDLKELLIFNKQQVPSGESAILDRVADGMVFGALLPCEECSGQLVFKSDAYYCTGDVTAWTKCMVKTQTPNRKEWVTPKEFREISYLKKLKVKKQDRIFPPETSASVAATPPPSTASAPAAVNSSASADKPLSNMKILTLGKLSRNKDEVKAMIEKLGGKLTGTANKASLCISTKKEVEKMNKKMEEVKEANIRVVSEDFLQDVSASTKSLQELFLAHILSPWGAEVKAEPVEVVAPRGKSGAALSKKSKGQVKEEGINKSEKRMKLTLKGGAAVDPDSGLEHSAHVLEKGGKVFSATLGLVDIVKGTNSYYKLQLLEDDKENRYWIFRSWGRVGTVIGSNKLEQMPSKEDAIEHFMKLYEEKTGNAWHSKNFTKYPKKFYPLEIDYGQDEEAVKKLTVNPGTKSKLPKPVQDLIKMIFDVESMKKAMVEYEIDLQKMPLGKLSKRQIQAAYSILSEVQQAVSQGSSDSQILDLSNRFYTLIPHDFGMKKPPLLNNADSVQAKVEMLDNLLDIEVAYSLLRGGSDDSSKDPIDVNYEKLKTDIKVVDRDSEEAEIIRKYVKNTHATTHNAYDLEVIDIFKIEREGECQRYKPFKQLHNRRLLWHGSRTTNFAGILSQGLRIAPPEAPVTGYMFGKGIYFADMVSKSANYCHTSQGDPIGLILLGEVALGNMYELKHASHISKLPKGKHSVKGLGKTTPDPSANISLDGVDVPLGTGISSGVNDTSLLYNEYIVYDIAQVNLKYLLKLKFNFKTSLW

IC50 (Table 1A) [nM]	IC50 (Table 1) [nM]	Structure (SMILES)
10 to 100		N#Cc1cc(C2CCCN2CC(=O)N2CC(Nc3ncc(C(F)(F)F)cn3)C2)n[nH]c1=O (single isomer, unassigned) [Compound 123a]
10 to 100		O=C(CN1CCCC1c1cc(C(F)(F)F)c(=O)[nH]n1)N1CCN(c2ncc(Cl)cn2)CC1 (single isomer, unassigned) [Compound 35a]
10 to 100		N#Cc1ccc(N2CCN(C(=O)CN3CCCC3c3cc(C(F)(F)F)c(=O)[nH]n3)CC2)cc1 (single isomer, unassigned) [Compound 71b]
≤ 10		O=C(CN1CCCC1c1cc(C(F)(F)F)c(=O)[nH]n1)N1CCN(c2nc3ccccn3n2)CC1 (single isomer, unassigned) [Compound 117a]
> 10000		N#Cc1cc(C2CCCN2CC(=O)N2CCN(c3nc4cc(F)ccc4o3)CC2)n[nH]c1=O (single isomer, unassigned) [Compound 149b]
100 to 1000		O=C(CCN1CCC(c2cc(C(F)(F)F)c(=O)[nH]n2)CC1)N1CCN(c2ncc(C(F)(F)F)cn2)CC1 [Compound 61]
	100 to 1000	O=C(CCN1CCN(c2ncc(C(F)(F)F)cn2)CC1)N1CCCC(c2cc(C(F)(F)F)c(=O)[nH]n2)C1 (single isomer, unassigned) [Compound 9a]
1000 to 10000		O=C(CN1CCCC1c1cc(C(F)(F)F)c(=O)[nH]n1)N1CCN(c2nc3ccc(F)cn3n2)CC1 (single isomer, unassigned) [Compound 128b]
1000 to 10000		CC1(C)CC(c2cc(C(F)(F)F)c(=O)[nH]n2)N(CC(=O)N2CCN(c3ncc(C(F)(F)F)cn3)CC2)C1 (single isomer, unassigned) [Compound 94b]
	100 to 1000	O=C(CN1CCN(c2ncc(C(F)(F)F)cn2)CC1)N1CCCC1c1cc(C(F)(F)F)c(=O)[nH]n1 (single isomer, unassigned) [Compound 32a]
	10 to 100	O=C(CN1CCCC(c2cc(C(F)(F)F)c(=O)[nH]n2)C1)N1CCN(c2ncc(C(F)(F)F)cn2)CC1 (single isomer, unassigned) [Compound 14a]
100 to 1000		CNC(=O)c1ccc(N2CCN(C(=O)CN3CCC3c3cc(C(F)(F)F)c(=O)[nH]n3)CC2)cn1 (racemic) [Compound 53rac]
100 to 1000		N#Cc1cnc(N2CCN(C(=O)CN3CCCC3c3c[nH]c(=O)c(C(F)(F)F)c3)CC2)nc1 (single isomer, unassigned) [Compound 76b]
	10 to 100	O=C(CCN1CCCC1c1cc(C(F)(F)F)c(=O)[nH]n1)N1CCN(c2ncc(C(F)(F)F)cn2)CC1 (single isomer, unassigned) [Compound 18b, 6-(1-(3-oxo-3-(4-(5-(trifluoromethyl)pyrimidin-2-yl)piperazin-1-yl)propyl)pyrrolidin-2-yl)-4-(trifluoromethyl)pyridazin-3(2H)-one]
	100 to 1000	CCc1cc(C2CCCN(CCC(=O)N3CCN(c4ncc(C(F)(F)F)cn4)CC3)C2)c[nH]c1=O (racemic) [Compound 22rac, 3-ethyl-5-(1-(3-oxo-3-(4-(5-(trifluoromethyl)pyrimidin-2-yl)piperazin-1-yl)propyl)piperidin-3-yl)pyridin-2(1H)-one]
1000 to 10000		O=C(CN1CCCC1c1cc(C(F)(F)F)c(=O)[nH]n1)N1CCN(c2nc3ccc(F)cc3o2)CC1 (single isomer, unassigned) [Compound 95b]
100 to 1000		O=C(CN1CCCC1c1cc(C(F)(F)F)c(=O)[nH]n1)N1CCN(c2ncc(Cl)cc2Cl)CC1 (single isomer, unassigned) [Compound 125a]
	> 10000	O=C(CN1CCN(c2ncc(C(F)(F)F)cn2)CC1)N1CCCC1c1cc(C(F)(F)F)c(=O)[nH]n1 (single isomer, unassigned) [Compound 32b]
100 to 1000		O=C(CN1CCCCC1c1cc(C(F)(F)F)c(=O)[nH]n1)N1CCN(c2ncc(C(F)(F)F)cn2)CC1 (single isomer, unassigned) [Compound 66a]
1000 to 10000		Cc1[nH]c(=O)c(C(F)(F)F)cc1C1CCCN1CC(=O)N1CCN(c2ncc(C(F)(F)F)cn2)CC1 (single isomer, unassigned) [Compound 102b, 6-methyl-5-(1-(2-oxo-2-(4-(5-(trifluoromethyl)pyrimidin-2-yl)piperazin-1-yl)ethyl)pyrrolidin-2-yl)-3-(trifluoromethyl)pyridin-2(1H)-one]
1000 to 10000		N#Cc1ccc(N2CCN(C(=O)CN3CCCC3c3c[nH]c(=O)c(C(F)(F)F)c3)CC2)nc1 (single isomer, unassigned) [Compound 77a]
≤ 10		O=C(CN1CCCC1c1cc(C(F)(F)F)c(=O)[nH]n1)N1CCN(c2ncc(OC(F)F)cn2)CC1 (single isomer, unassigned) [Compound 118a]
1000 to 10000		O=C(CN1CCCC1c1cc(C(F)(F)F)c(=O)[nH]n1)N1CCN(c2ncc(OC(F)F)cn2)CC1 (single isomer, unassigned) [Compound 118b]

IC50 (Table 1A) [nM]	IC50 (Table 1) [nM]	Structure (SMILES)
100 to 1000		O=C(CN1CCCC1c1cc(Cl)c(=O)[nH]n1)N1CCN(c2ncc(C(F)(F)F)cn2)CC1 (racemic) [Compound 68rac, 4-chloro-6-(1-(2-oxo-2-(4-(5-(trifluoromethyl)pyrimidin-2-yl)piperazin-1-yl)ethyl)pyrrolidin-2-yl)pyridazin-3(2H)-one]
	10 to 100	O=C(CN1CCCC1c1cc(C(F)(F)F)c(=O)[nH]n1)N1CCN(c2ncc(C(F)(F)F)cn2)CC1 (single isomer, unassigned) [Compound 24b, 6-(1-(2-oxo-2-(4-(5-(trifluoromethyl)pyrimidin-2-yl)piperazin-1-yl)ethyl)pyrrolidin-2-yl)-4-(trifluoromethyl)pyridazin-3(2H)-one]
> 10000		N#Cc1ccc2nc(N3CCN(C(=O)CN4CCCC4c4cc(C#N)c(=O)[nH]n4)CC3)oc2c1 (single isomer, unassigned) [Compound 145b]
10 to 100		O=C(CN1CCCC1c1cc(C(F)(F)F)c(=O)[nH]n1)N1CCN(c2ccc(C(F)F)cn2)CC1 (single isomer, unassigned) [Compound 126a]
100 to 1000		N#Cc1ccc2oc(N3CCN(C(=O)CN4CCCC4c4cc(C(F)(F)F)c(=O)[nH]n4)CC3)nc2c1 (single isomer, unassigned) [Compound 100b]
> 10000		N#Cc1[nH]c(=O)c(C(F)(F)F)cc1C1CCCN1CC(=O)N1CCN(c2ncc(C(F)(F)F)cn2)CC1 (racemic) [Compound 115rac]
100 to 1000		CNC(=O)c1ccc(N2CCN(C(=O)CN3CCC(c4cc(C(F)(F)F)c(=O)[nH]n4)CC3)CC2)cn1 [Compound 64]
	10 to 100	O=C(CCN1CCCC(c2c[nH]c(=O)c(C(F)(F)F)c2)C1)N1CCN(c2ncc(C(F)(F)F)cn2)CC1 (single isomer, unassigned) [Compound 25a]
	10 to 100	O=C(CCN1CCCC1c1cc(C(F)(F)F)c(=O)[nH]n1)N1CCN(c2ncc(C(F)(F)F)cn2)CC1 (single isomer, unassigned) [Compound 18a, 6-(1-(3-oxo-3-(4-(5-(trifluoromethyl)pyrimidin-2-yl)piperazin-1-yl)propyl)pyrrolidin-2-yl)-4-(trifluoromethyl)pyridazin-3(2H)-one]
10 to 100		N#Cc1cnc(N2CCN(C(=O)CN3CCCC3c3cc(C(F)(F)F)c(=O)[nH]n3)CC2)s1 (racemic) [Compound 44rac]
1000 to 10000		CCc1cc(C2CCCN2CC(=O)N2CCN(c3ncc(C(F)(F)F)cn3)CC2)n[nH]c1=O (single isomer, unassigned) [Compound 40b]
1000 to 10000		O=C(CN1CCCC1c1c[nH]c(=O)c(C(F)(F)F)n1)N1CCN(c2ncc(C(F)(F)F)cn2)CC1 (single isomer, unassigned) [Compound 84b, 5-(1-(2-oxo-2-(4-(5-(trifluoromethyl)pyrimidin-2-yl)piperazin-1-yl)ethyl)pyrrolidin-2-yl)-3-(trifluoromethyl)pyrazin-2(1H)-one]
10 to 100		CCc1cc(C2CCCN2CC(=O)N2CCN(c3ncc(C(F)(F)F)cn3)CC2)n[nH]c1=O (single isomer, unassigned) [Compound 40a]
≤ 10		CNC(=O)c1ccc(N2CCN(C(=O)CCN3CCC(c4n[nH]c(=O)c5ccccc45)CC3)CC2)cn1 [Compound 48, N-methyl-5-(4-(3-(4-(4-oxo-3,4-dihydrophthalazin-1-yl)piperidin-1-yl)propanoyl)piperazin-1-yl)picolinamide]
100 to 1000		O=C(CN1CCOCC1c1cc(C(F)(F)F)c(=O)[nH]n1)N1CCN(c2ncc(C(F)(F)F)cn2)CC1 (single isomer, unassigned) [Compound 88a]
10 to 100		N#Cc1cnc(N2CCN(C(=O)CN3CCCC3c3cc(C(F)(F)F)c(=O)[nH]n3)CC2)nc1 (single isomer, unassigned) [Compound 36a]
1000 to 10000		CCc1[nH]c(=O)c(C(F)(F)F)cc1C1CCCN1CC(=O)N1CCN(c2ncc(C(F)(F)F)cn2)CC1 (single isomer, unassigned) [Compound 105a]
1000 to 10000		CCc1cc(C2CCCN2CC(=O)N2CCN(c3ncc(C(F)(F)F)cn3)CC2)c[nH]c1=O (single isomer, unassigned) [Compound 57b]
1000 to 10000		CN(c1ncc(C(F)(F)F)cn1)C1CCN(C(=O)CN2CCCC2c2cc(C(F)(F)F)c(=O)[nH]n2)CC1 (single isomer, unassigned) [Compound 107a]
100 to 1000		N#Cc1ccc2nc(N3CCN(C(=O)CN4CCCC4c4cc(C(F)(F)F)c(=O)[nH]n4)CC3)oc2c1 (single isomer, unassigned) [Compound 96a]
	1000 to 10000	O=C(CN1CCCC1c1cc(C(F)(F)F)c(=O)[nH]n1)N1CCN(c2ncc(C(F)(F)F)cn2)CC1 (single isomer, unassigned) [Compound 24a, 6-(1-(2-oxo-2-(4-(5-(trifluoromethyl)pyrimidin-2-yl)piperazin-1-yl)ethyl)pyrrolidin-2-yl)-4-(trifluoromethyl)pyridazin-3(2H)-one]
10 to 100		CC1(C)CC(c2cc(C(F)(F)F)c(=O)[nH]n2)CN(CCC(=O)N2CCN(c3ncc(C(F)(F)F)cn3)CC2)C1 (single isomer, unassigned) [Compound 87b]
1000 to 10000		O=C(CN1CCCC1c1cc(C(F)(F)F)c(=O)[nH]n1)N1CCN(c2ncc(F)cn2)CC1 (single isomer, unassigned) [Compound 43b]

Structure (SMILES)	IC50 (Table 1A) [nM]	IC50 (Table 1) [nM]
O=C(CCN1CCCC(c2cc(C(F)(F)F)c(=O)[nH]n2)C1)N1CCN(c2cnc(C(F)(F)F)cn2)CC1 (racemic) [Compound 30rac]		100 to 1000
